According to patent US20160128988A1, “COMBINATIONS FOR THE TREATMENT OF CANCER COMPRISING A MPS-1 KINASE INHIBITOR AND A MITOTIC INHIBITOR” (BAYER PHARMA AKTIENGESELLSCHAFT, priority 2013, published 2016):
Where two headings read alike, the source gives them in different places. Marks after values point to notes of the source that are not given here.

Columns and labels:
[1] = system: NCI-H1299 human NSCLC xenograft tumors; settings: Compound A1 2 mg/kg 2QD 2on/5off p.o., docetaxel 15 mg/kg QD 1on/6off i.v.; for T/C area: relative mean tumor area, 20 treatment days
Excerpt: The effect of combination treatment of an Mps-1 kinase inhibitor (Compound A1) with docetaxel, another SAC activating, […], anti-mitotic agent, used as standard of care in NSCLC patients, was studied in the NCI-H1299 taxane intrinsically resistant human lung carcinoma (NSCLC) xenograft model in nude mice.
Docetaxel was applied intravenously once per week upon its respective MTD. Substances were formulated in optimal vehicles to achieve solutions. Animal body weight and tumor size were determined two times weekly. […] For combination treatment Compound A1and docetaxel were applied at the same day within a time frame of 4 hours. Animals of control and Mps-1 kinase inhibitor monotherapy group were treated for a duration of 20 days. Animals of docetaxel monotherapy and docetaxel/Mps-1 kinase inhibitor combination treatment groups were treated for a duration of 42 days. At the end of the study after one final treatment plasma and tumors were sampled for PK analysis and final tumor weight was determined.
(§1) NCI-H1299 human NSCLC tumor cells were implanted s.c. into nude mice on day 0. […] Compound A1 was administered orally (p.o.) upon 2.0 mg/kg twice daily (2QD) for 2 days on/5 days off (2 on/5 off) in monotherapy and in combination with docetaxel. Docetaxel was administered intravenously (i.v.) upon 15 mg/kg once daily (QD) once per week (1 on/6 off) in monotherapy and combination therapy. Tumor growth was monitored by determination of the tumor area using calliper measurement two to three times weekly. FIG. 2A: Time course of tumor growth. FIG. 2B: Weight of tumors in docetaxel/Mps-1 kinase inhibitor combination group at the end of the study at day 52 after tumor cell inoculation. FIG. 2C: Time course of animal body weight change during the course of the study.

[2] = Maximum tolerated dose (MTD); assay type: in vivo, nude mice
[3] = system: MKN1 human gastric carcinoma model; assay: Combination with paclitaxel in MKN1 human gastric carcinoma model
Procedure: (§3) Compound A1 was administered PO in the 2QD intermittent (2 days on/5 days off) dosing schedule up to the respective MTD in single-agent treatment and at a dose of 40% of the single-agent MTD in combination. Paclitaxel was administered IV QW at its respective MTD. Treatment for all groups started at a tumor size of 27 mm^2, on day 7 after tumor cell inoculation. For combination treatment, Compound A1 and paclitaxel were administered on the same day within a time of 4 hours. Animals of the control and Compound A1 single-agent treatment groups were treated for 40 days. Animals of the paclitaxel single-agent and Compound A1 with paclitaxel combination treatment groups were treated for 78 days.

[4] = system: MKN1 human gastric carcinoma model; settings: mouse, in vivo
Procedure: as §3

A2780cis xenograft model = system: A2780cis xenograft model
Procedure: The effect of the combination treatment of Compound A1 with paclitaxel was studied in a human ovarian carcinoma model in nude mice, namely in the adaptive cisplatin-resistant and paclitaxel intrinsically-resistant A2780cis xenograft model. […] Paclitaxel was administered IV QW at its respective MTD.

[5] = system: IGR-OV1 human ovarian carcinoma model
Procedure: Paclitaxel was administered IV QW at 50% of its respective MTD.

[6] = system: primary human NSCLC xenograft model LU387; assay: Combination with paclitaxel in primary human NSCLC xenograft model LU387; assay type: in vivo, nude mice; settings: day 42; paclitaxel 20 mg/kg IV QW for 6 weeks, alone or in combination with Compound A1
Procedure: The effect of Compound A1 and paclitaxel compared with a vehicle was evaluated in the subcutaneous primary human NSCLC xenograft model LU387 on nude mice.

[7] = system: NCI-H1299 human NSCLC xenograft tumors; settings: Compound A1 0.45 mg/kg 2QD 2on/5off p.o., paclitaxel 20 mg/kg QD 1on/6off i.v.; for T/C area: relative mean tumor area, 28 treatment days
Procedure: The effect of combination treatment of an Mps-1 inhibitor and paclitaxel was studied in the NCI-H1299 taxane intrinsically resistant human lung carcinoma (NSCLC) xenograft model in nude mice.
(§2) Paclitaxel was applied intravenously once per week upon its respective MTD. Substances were formulated in optimal vehicles to achieve solutions. Animal body weight and tumor size were determined two to three times weekly. […] For combination treatment, the Compound A1 and paclitaxel were applied at the same day within a time frame of 4 hours. Animals of control and monotherapy group (Compound A1 only) were treated for a duration of 28 days. Animals of paclitaxel monotherapy and paclitaxel/Mps-1 inhibitor treatment groups were treated for a duration of 37 days. At the end of the study after one final treatment plasma and tumors were sampled for PK analysis and final tumor weight was determined.
as §1, with “FIGS. 1A and 1B show the response of NCI-H1299 human NSCLC xenograft tumors to treatment with Compound A1 in combination with paclitaxel. NCI-H1299” for “NCI-H1299”, “0.45” for “2.0”, “paclitaxel. Paclitaxel” for “docetaxel. Docetaxel”, “20” for “15”, “1A:” for “2A:”, “1B:” for “2B: Weight of tumors in docetaxel/Mps-1 kinase inhibitor combination group at the end of the study at day 52 after tumor cell inoculation. FIG. 2C:”

[8] = system: cisplatin-resistant ovarian cancer cells A2780cis; assay: Mode of action: histopathology of A2780cis tumors after treatment
Procedure: To explain in vivo the mode of action of an Mps-1 kinase inhibitor in single-agent treatment and combination treatment with a taxane, female NMRI (Naval Medical Research Institute) nude mice were implanted with cisplatin-resistant ovarian cancer cells A2780cis.
Paclitaxel was administered IV (intravenous(ly)) QW (once per week (meaning the 1 day on/6 days off treatment schedule)) at its MTD (24 mg/kg) in single-agent and combination treatments. […] Tumors were embedded in paraffin, sections were prepared and stained with hematoxylin & eosin for histopathological analysis.

[9] = system: MDA-MB 231 human triple-negative breast cancer xenograft tumors; settings: Compound A1 1 mg/kg 2QD 2on/5off p.o., paclitaxel 20 mg/kg QD 1on/6off i.v.; for T/C area: relative mean tumor area, 28 treatment days
Procedure: The effect of combination treatment of an Mps-1 kinase inhibitor (Compound A1) and paclitaxel was studied in the MDA-MB 231 human triple-negative (no expression of Her2/neu, progesterone receptor, estrogen receptor) xenograft model in nude mice.
as §2, with “determined” for “determined two to”, “treatment,” for “treatment, the”, “paclitaxel/Mps-1 kinase” for “paclitaxel/Mps-1”, “50” for “37”
MDA-MB 231 human breast cancer cells were implanted s.c. into nude mice on day 0. […] Compound A1 was administered orally (p.o.) upon 1 mg/kg twice daily (2QD) for 2 days on/5 days off (2 on/5 off) in monotherapy and in combination with paclitaxel. Paclitaxel was administered intravenously (i.v.) upon 20 mg/kg once daily (QD) once per week (1 on/6 off) in monotherapy and combination therapy. Tumor growth was monitored by determination of the tumor area using calliper measurement three times weekly. FIG. 3A: Time course of tumor growth. FIG. 3B: Weight of tumors in paclitaxel/Mps-1 kinase inhibitor combination group at the end of the study at day 73 after tumor cell inoculation. FIG. 3C: Time course of animal body weight change during the course of the study.

[10] = system: human glioblastoma model U87 MG; assay: Combination with vincristine in human glioblastoma model U87 MG (intracerebral); assay type: in vivo, nude mice
Procedure: The study was designed to determine the response of this glioblastoma model to the treatment with the investigational Compound A1 and vincristine, both alone at a fixed dose, and vincristine in combination with two different doses, both lower than that of Compound A1 used in the monotherapy schedule. The size of the glioblastoma was used as read out parameter for response.
The cell culture derived human xenograft U87 MG was initiated by transplantation of the tumor cells into the left hemisphere of the mouse brain. Treatment was done in three cycles between day 3 and day 19. Mice were sacrificed at day 24, the brain isolated and shock frozen in 2 methyl-butane. Tumor size were determined as measure for tumor growth inhibition from cryo-slizes after staining.

[11] = after 78 treatment days, paclitaxel 24 mg/kg IV QW
[12] = day 24, single agents: Gr. B Compound A1 2.5 mg/kg p.o., Gr. C Vincristine 0.75 mg/kg i.p.

Question: Which results are given for CC(=O)O[C@@]12CO[C@@H]1C[C@H](O)[C@@]1(C)C(=O)[C@H](O)C3=C(C)[C@@H](OC(=O)[C@H](O)[C@@H](NC(=O)OC(C)(C)C)c4ccccc4)C[C@@](O)([C@@H](OC(=O)c4ccccc4)[C@H]21)C3(C)C [Docetaxel, 1,7β,10β-trihydroxy-9-oxo-5β,20-epoxytax-11-ene-2α,4,13α-triyl 4-acetate 2-benzoate 13-{(2R,3S)-3-[(tert-butoxycarbonyl)amino]-2-hydroxy-3-phenylpropanoate}, reference compound]?
Answer: Fatal Tox [1]: 0/8; Max. Body weight loss (%) [1]: −2%; T/C area [1]: 0.16^#; T/C area ([1]; listed as docetaxel): 0.16; MTD ([2]; nude, mouse, in vivo, Compound A1 PO 2QD 2 days on/5 days off, paclitaxel IV QW, docetaxel i.v. 1 day on/6 days off, read-out: MTD (maximum tolerated dose), single-agent): 15 mg/kg

Question: What does the source list for CC(=O)O[C@H]1C(=O)[C@@]2(C)[C@H]([C@H](OC(=O)c3ccccc3)[C@]3(O)C[C@H](OC(=O)[C@H](O)[C@@H](NC(=O)c4ccccc4)c4ccccc4)C(C)=C1C3(C)C)[C@]1(OC(C)=O)CO[C@@H]1C[C@@H]2O [Paclitaxel, (2α,4α,5β,7β,10β,13α)-4,10-bis(acetyloxy)-13-{[(2R, 3S)-3-(benzoylamino)-2-hydroxy-3-phenylpropanoyl]oxy}-1,7-dihydroxy-9-oxo-5,20-epoxytax-11-en-2-yl benzoate, reference compound]?
Answer: relative T/Carea ([3]; 40 treatment days, paclitaxel 24 mg/kg IV QW, combination with Compound A1 1 mg/kg PO 2QD 2 days on/5 days off): 0.05; partial regression (% of tumors) [3, 11]: 20%; tumor growth delay (% of tumors) [3, 11]: 80%; anti-tumor efficacy (in words) ([3]; mouse, in vivo): overall disease stabilization; Fatal toxicity (number of animals) ([3]; paclitaxel group: Treatment Day 57, combination group: after the first treatment cycle): 1; tolerability (in words) [4]: overall well tolerated without critical body weight loss; relative T/Carea (A2780cis xenograft model; 14 treatment days, Compound A1 1 mg/kg PO 2QD 2 days on/5 days off, paclitaxel 24 mg/kg IV QW): 0.09; tolerability (in words) (A2780cis xenograft model; mouse, in vivo): well tolerated without critical body weight loss or toxicities; MTD (maximum tolerated dose), single-agent ([2]; paclitaxel i.v. 1 day on/6 days off, as stated for the NCI-H1299 study): 20 mg/kg; relative T/Carea ([5]; 38 treatment days, Compound A1 single agent 2.5 mg/kg PO 2QD, paclitaxel 12 mg/kg IV QW, combination with Compound A1 2 mg/kg PO 2QD): 0.34; anti-tumor efficacy (in words) ([5]; Compound A1 2.5 mg/kg single agent (38 days), paclitaxel 12 mg/kg and combination with Compound A1 2 mg/kg (treatment day 38 to 59)): clear tumor progression; tolerability (in words) ([5]; mouse, in vivo): well tolerated without critical body weight loss or toxicities; mean tumor size [6]: 1494 mm^3; Fatal Tox [7]: 0/10; T/C area [7]: 0.28^#; T/C area ([7]; listed as paclitaxel): 0.28; histopathological phenotype of tumor tissue ([8]; paclitaxel 24 mg/kg IV QW single agent, 4 and 8 hours after treatment): induced atypical mitoses; histopathological phenotype of tumor tissue ([8]; paclitaxel 24 mg/kg IV QW single agent, 28, 32 and 48 hours after treatment): increased necrosis and apoptosis; Fatal Tox [9]: 0/10; T/C area [9]: 0.14^#; T/C area ([9]; listed as paclitaxel): 0.14

Question: For CC[C@]1(O)C[C@H]2CN(CCc3c([nH]c4ccccc34)[C@@](C(=O)OC)(c3cc4c(cc3OC)N(C=O)[C@H]3[C@@](O)(C(=O)OC)[C@H](OC(C)=O)[C@]5(CC)C=CCN6CC[C@]43[C@@H]65)C2)C1 [Vincristine, vincristine, reference compound], which “inhibition of tumor growth” value ([10]; Gr. C vincristine alone, Gr. D combination of high dose Compound A1 and vincristine) is on record?
Answer: 38.6%

Question: What about the “Brain tumor inside [mm^2]” value ([10]; day 24, single agents: Gr. B Compound A1 2.5 mg/kg p.o. BIDx2x3, Gr. C Vincristine 0.75 mg/kg i.p. 1xqWx3) of the same compound?
Answer: 10.69 +/− 6.71 mm^2

Question: What about the “Brain tumor outside [mm^2]” value [10, 12] of the same compound?
Answer: 4.50 +/− 1.66 mm^2

Question: What about the “Brain tumor total [mm^2]” value [10, 12] of the same compound?
Answer: 13.26 +/− 7.25 mm^2

Question: What about the “T/C (inside T) [%]” value [10, 12] of the same compound?
Answer: 61.4%
